Results on 16 molecules are retold here after patent publication US20110230493A1, “1-OXA-8-Azaspiro [4,5] Decabe-8-Carboxamide Compounds as FAAH Inhibitors” (Pfizer Inc., priority 2008, published 2011).

In one experiment the target is T1, human FAAH (Homo sapiens, UniProt O00519).
T1 construct: made in house; host or cells: E. coli
T1 sequence (O00519 1-579): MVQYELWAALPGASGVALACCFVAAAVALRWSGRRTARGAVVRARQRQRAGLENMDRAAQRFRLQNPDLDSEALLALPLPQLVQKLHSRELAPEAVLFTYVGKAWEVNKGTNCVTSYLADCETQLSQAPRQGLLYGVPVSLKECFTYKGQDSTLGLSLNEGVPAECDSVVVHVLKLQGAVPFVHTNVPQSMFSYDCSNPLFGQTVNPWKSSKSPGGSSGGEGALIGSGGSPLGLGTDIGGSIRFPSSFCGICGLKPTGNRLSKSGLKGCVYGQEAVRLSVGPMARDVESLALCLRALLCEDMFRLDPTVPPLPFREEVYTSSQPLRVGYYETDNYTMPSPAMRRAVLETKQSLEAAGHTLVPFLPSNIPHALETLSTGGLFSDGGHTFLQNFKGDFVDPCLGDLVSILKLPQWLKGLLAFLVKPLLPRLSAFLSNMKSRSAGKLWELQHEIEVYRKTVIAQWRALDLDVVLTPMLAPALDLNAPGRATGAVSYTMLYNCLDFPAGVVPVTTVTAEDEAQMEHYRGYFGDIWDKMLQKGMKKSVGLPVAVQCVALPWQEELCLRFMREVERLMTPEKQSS
Put plainly: FAAH assay, human FAAH enzyme inactivation (kinact/Ki). The class given is biochemical. Conditions: pH 7.4, in vitro, oleamide 50 μM, 30° C., read-out: hFAAH kinact/Ki. Here is the method: (§1) The FAAH assay was carried out in 384-well clear polystyrene plates (Evergreen Scientific) in a total volume of 50 μl per well in a manner similar to that described by Mileni et al., Proc. Nat. Acad. Sci. 2008, 105, 12820-12824. All percents are by volume. Serial dilutions of compound were initially prepared in 100% DMSO, and then diluted two-fold into HPLC-grade H2O to give 50% DMSO. To each well, was placed the reaction mixture (40 μl) containing 1-4 nM FAAH, 50 mM NaPi, pH 7.4, 3 mM α-ketoglutarate, 0.15 mM NADH, 7.5 U/ml glutamate dehydrogenase, 2 mM ADP, 1 mM EDTA, and 0.1% Triton X-100 (The concentration shown for each component is the final concentration in the assay). To this mixture, was added 5 μl of a compound of Examples 1 to 101 at various concentrations in 50% DMSO (or 5 μl 50% DMSO for controls). This was immediately followed by the addition of 5 μl oleamide (500 μM) dissolved in 75% EtOH/25% DMSO and the reaction mixture was mixed for 1.5 min. The final concentrations of DMSO and EtOH in the assay were each 7.5%. The reactions were incubated at 30° C. and the absorbance at 340 nm was collected over a period of 90 min with readings taken in 30-second intervals using SpectraMax Plus^384 Microplate Spectrophotometer (Molecular Devices, Sunnyvale, Calif.). The human FAAH and rat FAAH used in the assay was prepared as described in the patent application WO 2006/067613 using wild-type E. coli cells transformed in St. Louis, Mo., U.S.A. The purity of the enzyme was greater than 98% based on an analysis by SDS-polyacrylamide gel electrophoresis followed by Coomassie Blue staining.
(§2) Reaction progress curves were corrected for the non-enzymatic oxidation of NADH by subtraction of absorbancies at each time point obtained from control reactions containing no FAAH enzyme. The loss of enzyme activity as a function of time is well-described by the following mathematical equation (1) for a mono-exponential decay: […]
(§3) where At represents the absorbance at time t, A0 represents the absorbance at time zero, and C represents a constant. Observed rates of enzyme inactivation (kobs) were determined from the non-linear reaction progress curves by fitting the corrected absorbancies to an equation for a mono-exponential decay using the third-party Microsoft Excel plug-in, XLfit (IDBS Limited). Secondary plots of kobs vs. inhibitor concentration were prepared from kobs values obtained from progress curves. Second-order rates for enzyme inactivation, expressed as kinact/Ki (M^−1 s^−1), were calculated from the slopes from linear regression analysis of the secondary plot of kobs vs. inhibitor concentration as defined in following equation (2), where [I]<<Ki:
(§4) The concentration of substrate in the assay was equal to the Km for oleamide of 50 μM. Therefore, reported kinact/Ki values are obtained by multiplying resulting slopes by a factor of two (i.e. slope=kinact/(Ki*2)).
(§5) Table 1, below, lists human FAAH (hFAAH) and rat FAAH (rFAAH) enzyme inhibition values for Examples 1-101 as a ratio of kinact/Ki (M^−1 s^−1).

In another experiment the target is T2, rat FAAH (Rattus norvegicus, UniProt P97612).
T2 construct: made in house; host or cells: E. coli
T2 sequence (P97612 1-579): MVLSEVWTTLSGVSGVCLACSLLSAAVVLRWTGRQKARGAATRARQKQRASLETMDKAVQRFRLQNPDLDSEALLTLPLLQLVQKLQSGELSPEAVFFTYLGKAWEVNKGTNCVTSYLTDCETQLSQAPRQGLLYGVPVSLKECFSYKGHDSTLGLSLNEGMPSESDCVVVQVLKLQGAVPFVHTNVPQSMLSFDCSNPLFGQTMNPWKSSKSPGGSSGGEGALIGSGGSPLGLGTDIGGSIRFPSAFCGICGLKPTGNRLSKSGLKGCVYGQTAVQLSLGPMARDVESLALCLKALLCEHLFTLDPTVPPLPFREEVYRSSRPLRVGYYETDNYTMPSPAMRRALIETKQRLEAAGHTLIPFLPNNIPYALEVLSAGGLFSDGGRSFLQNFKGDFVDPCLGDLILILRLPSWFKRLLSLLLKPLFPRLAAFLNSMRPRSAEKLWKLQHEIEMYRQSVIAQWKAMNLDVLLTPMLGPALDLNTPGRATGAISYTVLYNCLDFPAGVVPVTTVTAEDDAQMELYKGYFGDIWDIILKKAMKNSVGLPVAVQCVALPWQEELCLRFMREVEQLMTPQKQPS
Put plainly: FAAH assay, rat FAAH enzyme inactivation (kinact/Ki). The format is biochemical. Conditions: pH 7.4, in vitro, oleamide 50 μM, 30° C., read-out: rFAAH kinact/Ki. Here is the method:
as §1, §2, §3, §4, §5

Turning to `Cc1noc(NC(=O)N2CCC3(CC2)CC(c2ccc(OCc4cccc(F)c4)cc2)CO3)c1C` (racemic) [Example 22, (3RS)-N-(3,4-dimethylisoxazol-5-yl)-3-{4-[(3-fluorobenzyl)oxy]phenyl}-1-oxa-8-azaspiro[4.5]decane-8-carboxamide], the kinact/KI is 6030 M⁻¹ s⁻¹ at human FAAH and 3630 M⁻¹ s⁻¹ on rat FAAH.
`Cc1nnc(NC(=O)N2CCC3(CC2)CC(c2cccc(OC(F)(F)F)c2)CO3)o1` (single isomer, unassigned) [Example 70, N-(5-methyl-1,3,4-oxadiazol-2-yl)-3-[3-(trifluoromethoxy)phenyl]-1-oxa-8-azaspiro[4.5]decane-8-carboxamide]: the values for the kinact/KI at human FAAH and on rat FAAH were 2110 M⁻¹ s⁻¹ and 2390 M⁻¹ s⁻¹, respectively.
The like results for `Cn1nnnc1NC(=O)N1CCC2(CC1)C[C@H](c1ccc(OCc3cccc(F)c3)cc1)CO2` [Example 86, (3R)-3-{4-[(3-fluorobenzyl)oxy]phenyl}-N-(1-methyl-1H-tetrazol-5-yl)-1-oxa-8-azaspiro[4.5]decane-8-carboxamide] were, in that order, 28400 M⁻¹ s⁻¹ and 11200 M⁻¹ s⁻¹.
With `Cc1noc(NC(=O)N2CCC3(CC2)C[C@H](c2cccc(-c4ccc(F)c(F)c4)c2)CO3)c1C` [Example 58, (3R)-3-(3′,4′-difluorobiphenyl-3-yl)-N-(3,4-dimethylisoxazol-5-yl)-1-oxa-8-azaspiro[4.5]decane-8-carboxamide], the figures for the kinact/KI on human FAAH and at rat FAAH were 2780 M⁻¹ s⁻¹ and 707 M⁻¹ s⁻¹, respectively.
Consider `Cc1noc(NC(=O)N2CCC3(CC2)CC(c2ccc(OCc4ccc(F)cc4)c(Cl)c2)CO3)c1C` (racemic) [Example 19, (3RS)-3-{3-chloro-4-[(4-fluorobenzyl)oxy]phenyl}-N-(3,4-dimethylisoxazol-5-yl)-1-oxa-8-azaspiro[4.5]decane-8-carboxamide], for which the values for the kinact/KI at human FAAH and at rat FAAH were 6710 M⁻¹ s⁻¹ and 7120 M⁻¹ s⁻¹, respectively.
`Cc1noc(NC(=O)N2CCC3(CC2)CC(c2ccc(OCc4ccc(F)cc4)cc2)CO3)c1C` (racemic) [Example 17, (3RS)-N-(3,4-dimethylisoxazol-5-yl)-3-{4-[(4-fluorobenzyl)oxy]phenyl}-1-oxa-8-azaspiro[4.5]decane-8-carboxamide]: the kinact/KI was 6960 M⁻¹ s⁻¹ on human FAAH and 6690 M⁻¹ s⁻¹ at rat FAAH.
With `Cc1noc(NC(=O)N2CCC3(CC2)CC(c2ccc(OCc4cccc(Cl)c4)c(Cl)c2)CO3)c1C` (racemic) [Example 21, (3RS)-3-{3-chloro-4-[(3-chlorobenzyl)oxy]phenyl}-N-(3,4-dimethylisoxazol-5-yl)-1-oxa-8-azaspiro[4.5]decane-8-carboxamide], the kinact/KI came out at 3100 M⁻¹ s⁻¹ at human FAAH and 3550 M⁻¹ s⁻¹ on rat FAAH.
For the molecule `Cc1noc(NC(=O)N2CCC3(CC2)CC(c2cccc(-c4ccc(OC(F)(F)F)cc4)c2)CO3)c1C` (racemic) [Example 56, (3RS)-N-(3,4-dimethylisoxazol-5-yl)-3-[4′-(trifluoromethoxy)biphenyl-3-yl]-1-oxa-8-azaspiro[4.5]decane-8-carboxamide], the values for the kinact/KI on human FAAH and at rat FAAH were 1880 M⁻¹ s⁻¹ and 1140 M⁻¹ s⁻¹, respectively.
With `Cc1noc(NC(=O)N2CCC3(CC2)CC(c2noc(-c4ccc(C(F)(F)F)cc4)n2)CO3)c1C` (racemic) [Example 74, (3RS)—N-(3,4-dimethylisoxazol-5-yl)-3-{5-[4-(trifluoromethyl)phenyl]-1,2,4-oxadiazol-3-yl}-1-oxa-8-azaspiro[4.5]decane-8-carboxamide], the kinact/KI at human FAAH was determined as 2380 M⁻¹ s⁻¹; on rat FAAH, 1140 M⁻¹ s⁻¹.
With `Cc1noc(NC(=O)N2CCC3(CC2)CC(c2cccc(-c4ccc(F)c(F)c4)c2)CO3)c1C` (racemic) [Example 53, (3RS)-3-(3′,4′-difluorobiphenyl-3-yl)-N-(3,4-dimethylisoxazol-5-yl)-1-oxa-8-azaspiro[4.5]decane-8-carboxamide], the kinact/KI on human FAAH came out at 2020 M⁻¹ s⁻¹; on rat FAAH it was 1470 M⁻¹ s⁻¹.
On to `O=C(Nc1cccnn1)N1CCC2(CC1)CC(c1cccc(Oc3ccc(Br)cn3)c1)CO2` (racemic) [Example 5, (3RS)-3-{3-[(5-bromopyridin-2-yl)oxy]phenyl}-N-pyridazin-3-yl-1-oxa-8-azaspiro[4.5]decane-8-carboxamide], for which the figures for the kinact/KI at human FAAH and on rat FAAH were 2660 M⁻¹ s⁻¹ and 3620 M⁻¹ s⁻¹, respectively.
With `Cc1noc(NC(=O)N2CCC3(CC2)CC(c2cccc(-c4ccc(Cl)cc4)c2)CO3)c1C` (racemic) [Example 55, (3RS)-3-(4′-chlorobiphenyl-3-yl)-N-(3,4-dimethylisoxazol-5-yl)-1-oxa-8-azaspiro[4.5]decane-8-carboxamide], the kinact/KI on human FAAH was 2070 M⁻¹ s⁻¹; at rat FAAH, 1160 M⁻¹ s⁻¹.
Turning to `Cc1noc(NC(=O)N2CCC3(CC2)CC(c2cc(F)cc(Cl)c2)CO3)c1C` (racemic) [Example 16, (3RS)-3-(3-chloro-5-fluorophenyl)-N-(3,4-dimethylisoxazol-5-yl)-1-oxa-8-azaspiro[4.5]decane-8-carboxamide], the kinact/KI at human FAAH turned out to be 1990 M⁻¹ s⁻¹; on rat FAAH it was 3590 M⁻¹ s⁻¹.
As for `Cc1noc(NC(=O)N2CCC3(CC2)CC(c2ccc(OCc4ccc(C(F)(F)F)cn4)cc2)CO3)c1C` (racemic) [Example 32, (3RS)-N-(3,4-dimethylisoxazol-5-yl)-3-(4-{[5-(trifluoromethyl)pyridin-2-yl]methoxy}phenyl)-1-oxa-8-azaspiro[4.5]decane-8-carboxamide], the results for the kinact/KI at human FAAH and at rat FAAH were 4120 M⁻¹ s⁻¹ and 7580 M⁻¹ s⁻¹, respectively.
`Cc1noc(NC(=O)N2CCC3(CC2)CC(c2cccc(C(F)(F)F)c2)CO3)c1C` (single isomer, unassigned) [Example 66, N-(3,4-dimethylisoxazol-5-yl)-3-[3-(trifluoromethyl)phenyl]-1-oxa-8-azaspiro[4.5]decane-8-carboxamide]: the kinact/KI at human FAAH was 2140 M⁻¹ s⁻¹; on rat FAAH, 2920 M⁻¹ s⁻¹.
As for `Cc1noc(NC(=O)N2CCC3(CC2)CC(c2ccc(OCc4ccccc4Cl)c(Cl)c2)CO3)c1C` (racemic) [Example 18, (3RS)-3-{3-chloro-4-[(2-chlorobenzyl)oxy]phenyl}-N-(3,4-dimethylisoxazol-5-yl)-1-oxa-8-azaspiro[4.5]decane-8-carboxamide], the kinact/KI is 2290 M⁻¹ s⁻¹ on human FAAH and 2840 M⁻¹ s⁻¹ on rat FAAH.
